This is an account of results in a melting point compilation (Tetko et al.; mined from patent text by program, amines drawn as free bases though some values may be those of a salt).

SMILES strings stand for the structures.

For the compound `O=C(Nc1ccc(-n2nc(C(F)(F)F)cc2C(F)(F)F)cc1)c1ccccc1Oc1ccccc1`, the melting point (as a rule, the temperature, or range, at which the solid turns liquid) lay within 108 to 109 °C.
Then `CCC1c2nc[nH]c2CCN1C(=O)NC(C)C` (configuration not stated), with 170 °C.
For `O=C(Nc1ccc(-n2nc(C3CC3)cc2C2CC2)nc1)c1ccncc1F`, the melting point is 192 to 195 °C.
For the compound `CC(C)c1cccc(C(C)C)c1NC(=O)C(NCc1ccccc1)c1ccccc1` (configuration not stated), the melting point was in the range of 134 to 137 °C.
Then `C=CCOCCc1ccc(OCC(O)CNC(C)C)cc1` (configuration not stated), with 52 to 53 °C; and `CCOC(=O)c1ccc(OCCCCCCCCCCCOc2ccc(Cl)cc2)cc1`, with 94 to 95 °C.
Then `CCCCCCCCCCCCCCCCCCOc1cc(C(=O)OC)cc([N+](=O)[O-])c1`, with 64 to 66 °C; and `CC(C)(C)c1cc(CO)nn1-c1ccc(S(C)(=O)=O)cc1`, with 143 to 146 °C.
Then `CONC(=O)Cc1cccc(C(=O)c2ccc(Cl)cc2)c1C`, with 150 °C; and `O=C(NCCc1ccn(-c2cc3nc(C(=O)O)c(=O)[nH]c3cc2F)c1)Nc1ccc(C(=O)O)cc1`, with > 300 °C.
`O=C1Nc2cccc(-c3cccc(Cl)c3)c2/C1=C/c1ccc[nH]1` returned a melting point of 165 to 167 °C.
Compound `COc1cc2c(cc1OC)CN(CCc1ccc(NC(=O)c3cccc4c(=O)c5cccc(OC)c5[nH]c34)cc1)CC2` showed a melting point of 215 to 225 °C.
`O=C(N[C@H]1CCN(C(=O)c2cc(C(F)(F)F)cc(C(F)(F)F)c2)[C@H](Cc2ccc(Cl)cc2)C1)c1cc(=O)c2cc(F)ccc2o1` displayed a melting point of 215 to 218 °C.
`O=S(=O)(c1ccc(Cl)cc1)C(c1ccc(CN2CCCCC2)cn1)c1cc(F)ccc1F` (configuration not stated) had a melting point of 113 to 114 °C.
Then `CCC(=O)NC[C@H]1CN(c2ccc3c(c2)C[C@@H](C)N3C=O)C(=O)O1`, with 118 to 119 °C.
Then `C#CCNC(=O)c1c(I)cccc1[Si](C)(C)C`, with 109 to 111 °C; and `ClC(=NN=Cc1cccnc1)c1cccnc1`, with 103 to 105 °C; and `Fc1ccc(SC(F)(F)C(F)(F)C(F)(F)C(F)(F)C(F)(F)C(F)(F)C(F)(F)C(F)(F)Sc2ccc(F)cc2)cc1`, with 60 to 61 °C.
Then `CC1(C)OC(=C(C#N)C#N)C(C#N)=C1C=Cc1cc2c3c(c1)CCCN3CCC2`, with 243 °C.
The compound `NS(=O)(=O)c1ccc(-c2cnn(Cc3ccc(F)c(F)c3F)c(=O)c2-c2ccc(F)cc2)cc1` came in with a melting point of 218 to 220 °C.
Take `CC(C)(C)Cc1cc(C2(N)CC2)no1`: the melting point lay in the range of 39 to 47 °C.
Then `COC(=O)c1ccc(SCn2cc(I)cnc2=O)cc1`, with 210 °C.
Then `COc1ccc(I)cc1C(=O)O`, with 150 to 152 °C; and `CC(CF)(CF)C(=O)C(Br)Oc1ccc(Cl)cc1` (configuration not stated), with 54 to 57 °C.
In turn, `O=C(O)c1cccc(N2CCC(N=Cc3ccccc3)=N2)c1` displayed a melting point of 185 °C.
Then `O=C1c2ccccc2C(=O)c2c1cccc2N1CCC(C2CCNCC2)CC1`, with 155 to 160 °C.
Then `c1ccc(-c2[nH]c3ccccc3c2CCC2CCNCC2)cc1`, with 183 °C.
Then `COc1cc2ncc(C#N)c(Nc3cccc(C(C)=O)c3)c2cc1OC`, with 204 to 206 °C.
`COc1ccc(C(=O)O)c(OCc2ccc(OCCc3nc(-c4ccccc4)oc3C)cc2)c1` displayed a melting point of 113 to 115 °C.
Then `CCOC(=O)C1=C(C)Nc2ccn(C)c(=O)c2C1c1ccccc1OC` (configuration not stated), with 225 °C.
For the compound `COc1c(C)cc(C)cc1C(N)=O`, the melting point fell in the range of 109 to 113 °C.
As for `CS(=O)(=O)c1cccc(NC(=O)c2cnn3ccc(-c4ccc(C(F)(F)F)cc4)nc23)c1`, the melting point was 254 to 255 °C.
Then `Nc1ccc(N2CCN(Cc3ccccc3)CC2)cc1`, with 137 to 138 °C.
Then `CCOC(=O)N1CCC(=C2c3ccc(Cl)cc3CCn3ccnc32)CC1`, with 140 °C; and `O=[N+]([O-])CCc1[nH]ccc1-c1ccc(I)cc1`, with 88 to 89 °C; and `CN1CCC(c2nn(-c3ccc(N)cc3)c3ccccc23)CC1`, with 116 to 118 °C.
In turn, `COC(=O)c1cc(-c2ccc(S(C)(=O)=O)cc2)n(-c2ccc(F)cc2)c1C` yielded a melting point of 154 to 155 °C.
Then `O=[N+]([O-])c1cc(Cn2cncn2)ccc1Cl`, with 98.9 °C; and `COC(=O)C(=O)Oc1cc(-n2c(=O)cc(C(F)(F)F)n(C)c2=O)c(F)cc1Cl`, with 103 to 105 °C; and `COc1cc(C)c(Cl)cc1C(C)=O`, with 83 °C.
In turn, `CC(=O)Oc1c(C)c(C)c2c(c1C)CC(C)(C=O)O2` (configuration not stated) displayed a melting point of 78 to 79 °C.
Then `O=C(NCCCO)c1cccc(Nc2nccc(-c3ccnc(NCCCO)c3)n2)c1`, with 153 to 154 °C; and `COc1ccc2c(c1)CC(=O)CO2`, with 67 to 72 °C; and `C[C@@H](n1ncn(-c2ccc(-n3ncn(-c4ccc(OCC(F)(F)C(F)F)cc4)c3=O)cc2)c1=O)[C@@]1(c2ccc(F)cc2F)CO1`, with 181 to 183 °C.
For the compound `IC(I)=C(I)Cn1ncnn1`, the melting point is 92 to 93 °C.
Then `C=Cc1cc(OS(=O)(=O)c2ccc(C)cc2)c(OC)cc1C#N`, with 149 to 150 °C; and `O=[N+]([O-])c1ccc(Nc2ccccn2)c(C(F)(F)F)c1`, with 83 to 84 °C; and `Cc1c(NC(=O)c2ccc(NC(=O)c3ccccc3)cc2)ccc2cc(CN3CCCC3)cnc12`, with 242 °C.
Then `COc1cc(C(=O)N2CCC3(CC2)Cc2ccccc2O3)cc(OC)c1OC`, with 148 to 150 °C; and `CC1(c2ccc([N+](=O)[O-])cc2)Cc2cc(OCC(=O)O)c(Cl)c(Cl)c2C1=O` (configuration not stated), with 202 to 205 °C.
Then `O=S1(=O)NCN(CCCCF)c2cc(Cl)c(Cl)cc21`, with 141 to 143 °C; and `Cc1c(COc2ccc(-c3ccc(S(=O)(=O)NC(C(=O)O)C(C)C)cc3)cc2)oc2ccc(Br)c(OC(C)C)c12` (configuration not stated), with 137 to 140 °C.
In turn, `CCN1CCC(N(C)S(=O)(=O)c2ccc(Nc3nccc(Nc4ccc(F)cc4)n3)cc2)CC1` had a melting point of 162 to 163 °C.
Then `CN1CCC(N(CCN2CCCC2)C(=O)c2ccc(Nc3nccc(Nc4ccc(C(F)(F)F)cc4)n3)cc2)CC1`, with 115 to 120 °C.
The compound `CC(=O)NC[C@H]1CN(c2ccc3c(c2)CC(C)N3C(=O)CO)C(=O)O1` (some centres not stated) gave a melting point of 130 to 133 °C.
The compound `O=C(NC(=Cc1ccccc1)c1cccs1)C(F)(F)F` registered a melting point of 158 °C.
As to `Cc1ccc2c(c1)C(c1ncnc3c1cnn3C1CCCC1)C(=O)N2` (configuration not stated), the melting point is > 300 °C.
For the compound `CC1CCc2c(O)ccc3c(=O)c(C(=O)O)cn1c23` (configuration not stated), the melting point is > 300 °C.
Turning to `O=c1nc(-c2ccc3c(c2)OCO3)c2cc3c(cc2[nH]1)OCO3`, the melting point is > 300 °C.
Then `Cc1ccccc1CCNC(=O)c1c(Cl)ccc2nc(N3CCC(C(=O)O)CC3)ccc12`, with 237 to 241 °C.
The compound `CCCC(=O)Nc1n[nH]c2c(N)cc(C)nc12` had a melting point of 170 to 171 °C.
Then `COc1ccc(CC#N)cc1S(=O)(=O)NC(C)(C)C`, with 146 to 147 °C.
In turn, `COc1ccc(CS[C@@H]2C[C@@H](CNCc3ccccc3)N(S(C)(=O)=O)C2)cc1` came in with a melting point of 63 to 64 °C.
Then `CCOC(=O)c1cnc2[nH]ncc2c1O`, with 275 °C.
Then `O=C(Nc1ccc(C2(F)CCN(C(=O)OCc3ccccc3)CC2)c(F)c1)OCc1ccccc1`, with 116 to 118 °C.
The compound `NC(=O)CSC(c1ccccc1)c1ccccc1` had a melting point of 104 to 110 °C.
Then `CCOc1nc2cc(N)ccc2c(=O)o1`, with 185 to 187 °C; and `O=[N+]([O-])c1cc(Cl)c(Cl)cc1NC1C=CCC1` (configuration not stated), with 85 to 86 °C.
Consider `CCOC(=O)C1C(=O)CC(=O)CC1c1ccccc1` (configuration not stated), for which the melting point was 86 to 87 °C.
Then `O=C1CC(c2cccc3ccccc23)c2ccc(O)cc2O1` (configuration not stated), with 193 to 196 °C; and `Cc1cc(C2=NNC(=O)C2)ccc1[N+](=O)[O-]`, with 218 to 219 °C; and `CCn1c(=O)c(C(=O)O)c(N)c2cccnc21`, with 245 to 248 °C.
With `CC1(C)Oc2ccc([N+](=O)[O-])cc2C(n2ccccc2=O)=C1CNC(=O)C(F)(F)F`, the melting point turned out to be 189 °C.
Then `Nc1cc(NS(=O)(=O)CCl)c(Cl)cc1F`, with 104 to 106 °C.
`Cc1nc(Br)c(Br)n1Cc1cc2c(cc1Cl)OCO2` returned a melting point of 185 °C.
Then `COc1ccc(-c2cc(=O)n(CC=Cc3ccc(F)cc3F)nc2-c2ccc(OC)cc2)cc1`, with 107 to 108 °C; and `CCCOC(=O)N(C)SN(C(=O)NC(=O)c1c(F)cccc1F)c1ccc(Oc2ccc(C(F)(F)F)cc2Cl)cc1F`, with 98 to 99 °C.
Then `CCCCOC(=O)Cn1cccc1-c1nc(-c2ccc(OC)cc2)c(-c2ccc(OC)cc2)s1`, with 98 to 101 °C; and `O=C(NCc1ccccn1)Nc1cc(N2CC3(CCCCC3)CC2=O)ccn1`, with 191 to 192 °C; and `COc1ccc(C2(C#Cc3nccn3C)CCC(=O)CC2)cc1OC1CCCC1`, with 137 to 138 °C.
The compound `CCN(CC)CCOc1ccc(Nc2ncc3c(n2)N(C)C(=O)N(C(C)C)C3)cc1` showed a melting point of 154 °C.
The compound `CC12CCC=CC1=CCC1C2CCC2(C)C(c3cccnc3)=CCC12` (configuration not stated) came in with a melting point of 110 to 112 °C.
Then `COc1cc(OC)nc(Cc2ccccc2NS(=O)(=O)C(F)(F)F)n1`, with 99 to 100 °C; and `Cc1cccc(C(O)CNC(N)=C(CCSCc2cc(C)c(CN(C)C)s2)[N+](=O)[O-])c1` (configuration not stated), with 88 to 89 °C; and `COc1ccc(NC(=O)C(=O)N2CCC(Cc3ccccc3)CC2)cc1`, with 144 to 146 °C.
For the compound `O=C=Nc1cc([N+](=O)[O-])c(Cl)cc1F`, the melting point lay in the range of 43 to 46 °C.
Compound `Cc1ccccc1SCc1c(C(C)C)nc(C(C)C)c(CO)c1-c1ccc(F)cc1` came in with a melting point of 140 to 141 °C.
